Experimental findings from ChEMBL document CHEMBL5465560, “Selectivity Literature for EUbOPEN Chemogenomic Library” (2024) are described below.

Assay [1] has as its target Calcium/calmodulin-dependent protein kinase kinase 2 (Homo sapiens) (UniProt Q96RR4). Briefly: Selectivity interaction (Ambit KINOMEscan and KiNATiv profiling in Jurkat cells) EUB0000090b CAMKK2. In kind it is cell-based. The conditions noted are these: at 1 µM.
Assay [2] has as its target Serine/threonine-protein kinase mTOR (Homo sapiens, UniProt P42345). Briefly: Selectivity interaction (Ambit KINOMEscan and KiNATiv profiling in Jurkat cells) EUB0000090b MTOR. The conditions noted are these: at 1 µM. In kind it is cell-based.
In assay [3] the test system is Fibroblast growth factor receptor 3 (Homo sapiens), P22607 [G697C]. The conditions noted are these: at 10 µM.
Fibroblast growth factor receptor 3 (Homo sapiens), P22607 [G697C], sequence (P22607 whole entry G697C): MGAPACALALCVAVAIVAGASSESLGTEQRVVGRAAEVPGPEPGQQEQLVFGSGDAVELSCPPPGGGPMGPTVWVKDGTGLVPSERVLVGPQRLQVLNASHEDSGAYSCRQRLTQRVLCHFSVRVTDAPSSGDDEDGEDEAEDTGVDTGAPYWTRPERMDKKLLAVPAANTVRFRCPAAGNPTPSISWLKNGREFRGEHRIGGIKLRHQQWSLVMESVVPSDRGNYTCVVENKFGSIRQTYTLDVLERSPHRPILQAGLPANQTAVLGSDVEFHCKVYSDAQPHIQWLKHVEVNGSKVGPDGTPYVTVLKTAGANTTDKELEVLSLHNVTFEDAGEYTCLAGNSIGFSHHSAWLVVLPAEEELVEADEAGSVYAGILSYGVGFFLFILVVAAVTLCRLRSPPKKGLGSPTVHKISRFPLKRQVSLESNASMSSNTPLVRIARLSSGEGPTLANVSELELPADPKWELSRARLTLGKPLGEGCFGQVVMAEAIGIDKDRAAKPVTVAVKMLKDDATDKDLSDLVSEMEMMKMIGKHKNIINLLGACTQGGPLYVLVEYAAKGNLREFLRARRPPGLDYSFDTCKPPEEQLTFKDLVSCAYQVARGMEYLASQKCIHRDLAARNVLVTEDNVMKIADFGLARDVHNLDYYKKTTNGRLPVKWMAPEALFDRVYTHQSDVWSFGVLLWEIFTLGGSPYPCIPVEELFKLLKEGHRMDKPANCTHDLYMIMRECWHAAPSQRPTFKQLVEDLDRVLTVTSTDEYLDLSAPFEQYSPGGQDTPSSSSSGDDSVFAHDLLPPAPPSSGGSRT
In assay [4] the target is Serine/threonine-protein kinase PAK 3 (Homo sapiens) (UniProt O75914). Nature of the assay: Selectivity interaction (KinomeScan (DiscoverX)) EUB0001079a PAK3. The following applies: at 1 µM.
Serine/threonine-protein kinase PAK 3 (Homo sapiens), sequence (O75914 whole entry, looked up): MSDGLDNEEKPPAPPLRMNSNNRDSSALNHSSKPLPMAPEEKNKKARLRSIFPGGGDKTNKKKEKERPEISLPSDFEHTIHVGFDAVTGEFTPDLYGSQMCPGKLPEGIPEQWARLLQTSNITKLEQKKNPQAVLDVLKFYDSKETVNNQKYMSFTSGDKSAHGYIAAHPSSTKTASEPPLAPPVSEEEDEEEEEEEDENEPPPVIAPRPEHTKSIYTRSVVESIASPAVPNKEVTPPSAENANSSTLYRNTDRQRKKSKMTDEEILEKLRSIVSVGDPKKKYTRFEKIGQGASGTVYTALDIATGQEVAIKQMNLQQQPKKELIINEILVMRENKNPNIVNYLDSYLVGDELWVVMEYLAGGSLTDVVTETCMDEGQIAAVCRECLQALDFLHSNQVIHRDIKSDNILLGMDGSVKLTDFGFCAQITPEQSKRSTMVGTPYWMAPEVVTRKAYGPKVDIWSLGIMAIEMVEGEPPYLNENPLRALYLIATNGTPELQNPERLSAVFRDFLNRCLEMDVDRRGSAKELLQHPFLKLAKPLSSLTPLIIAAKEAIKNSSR
Assay [5] addresses T1, Serine/threonine-protein kinase Nek9 (Homo sapiens) (UniProt Q8TD19).
T1 sequence (whole entry): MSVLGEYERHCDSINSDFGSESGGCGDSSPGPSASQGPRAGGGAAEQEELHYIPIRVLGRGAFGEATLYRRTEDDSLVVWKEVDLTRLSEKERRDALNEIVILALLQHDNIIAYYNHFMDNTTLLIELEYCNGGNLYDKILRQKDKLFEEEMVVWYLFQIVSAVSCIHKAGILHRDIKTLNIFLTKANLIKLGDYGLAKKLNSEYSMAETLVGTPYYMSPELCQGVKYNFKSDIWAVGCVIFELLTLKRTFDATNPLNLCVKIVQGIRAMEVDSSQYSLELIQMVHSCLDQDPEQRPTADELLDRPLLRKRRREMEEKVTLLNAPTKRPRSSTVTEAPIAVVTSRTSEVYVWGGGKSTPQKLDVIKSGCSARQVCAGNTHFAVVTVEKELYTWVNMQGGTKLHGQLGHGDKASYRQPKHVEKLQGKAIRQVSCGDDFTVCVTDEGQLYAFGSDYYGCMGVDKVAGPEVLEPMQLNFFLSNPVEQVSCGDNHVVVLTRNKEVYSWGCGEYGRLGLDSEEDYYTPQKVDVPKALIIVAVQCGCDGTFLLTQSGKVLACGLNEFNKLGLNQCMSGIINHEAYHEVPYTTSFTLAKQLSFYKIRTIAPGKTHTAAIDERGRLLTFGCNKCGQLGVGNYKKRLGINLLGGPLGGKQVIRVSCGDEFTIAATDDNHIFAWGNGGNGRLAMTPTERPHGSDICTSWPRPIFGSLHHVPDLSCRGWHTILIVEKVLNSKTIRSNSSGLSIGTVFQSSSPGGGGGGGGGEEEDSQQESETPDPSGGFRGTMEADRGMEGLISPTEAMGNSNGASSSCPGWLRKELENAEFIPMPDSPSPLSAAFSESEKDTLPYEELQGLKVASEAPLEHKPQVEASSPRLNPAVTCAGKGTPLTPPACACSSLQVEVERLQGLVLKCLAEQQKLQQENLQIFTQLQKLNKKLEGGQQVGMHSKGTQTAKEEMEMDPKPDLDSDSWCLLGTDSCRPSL
Briefly: Selectivity interaction (ActivX KiNativ screen (kinase selectivity in THP-1 cell lysates)) EUB0000639a NEK9. In kind it is subcellular. The following applies: lysate.

Assay [6] concerns the target T2, Phosphatidylinositol 4,5-bisphosphate 3-kinase catalytic subunit delta isoform (Homo sapiens) (UniProt O00329).
T2 sequence (whole entry): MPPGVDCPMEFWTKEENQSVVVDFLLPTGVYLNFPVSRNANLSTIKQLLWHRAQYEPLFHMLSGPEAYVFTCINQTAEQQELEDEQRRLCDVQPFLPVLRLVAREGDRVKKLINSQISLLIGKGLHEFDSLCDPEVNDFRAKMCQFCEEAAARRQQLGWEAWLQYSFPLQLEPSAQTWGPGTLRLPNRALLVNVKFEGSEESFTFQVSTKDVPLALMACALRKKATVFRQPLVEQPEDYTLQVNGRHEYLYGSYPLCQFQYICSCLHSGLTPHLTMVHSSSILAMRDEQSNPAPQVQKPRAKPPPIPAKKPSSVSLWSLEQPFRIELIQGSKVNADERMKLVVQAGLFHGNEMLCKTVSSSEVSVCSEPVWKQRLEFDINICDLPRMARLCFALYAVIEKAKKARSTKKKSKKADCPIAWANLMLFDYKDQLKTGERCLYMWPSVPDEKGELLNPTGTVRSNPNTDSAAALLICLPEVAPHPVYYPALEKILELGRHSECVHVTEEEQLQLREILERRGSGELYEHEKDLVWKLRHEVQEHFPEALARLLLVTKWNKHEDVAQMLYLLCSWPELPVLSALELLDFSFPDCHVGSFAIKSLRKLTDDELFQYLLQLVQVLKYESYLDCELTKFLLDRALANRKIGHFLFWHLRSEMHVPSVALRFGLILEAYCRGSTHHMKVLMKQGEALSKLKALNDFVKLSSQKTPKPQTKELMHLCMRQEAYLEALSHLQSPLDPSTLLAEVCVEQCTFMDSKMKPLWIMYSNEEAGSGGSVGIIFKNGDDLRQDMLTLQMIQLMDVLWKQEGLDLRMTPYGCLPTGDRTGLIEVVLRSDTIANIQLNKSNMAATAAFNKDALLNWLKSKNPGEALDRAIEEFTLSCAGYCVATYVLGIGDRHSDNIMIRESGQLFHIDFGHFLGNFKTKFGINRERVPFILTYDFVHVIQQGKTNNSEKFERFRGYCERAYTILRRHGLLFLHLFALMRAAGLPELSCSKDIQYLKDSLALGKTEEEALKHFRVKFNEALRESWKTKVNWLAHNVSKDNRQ
Briefly: Selectivity interaction (ActivX KiNativ screen (kinase selectivity in THP-1 cell lysates)) EUB0000639a PIK3CD. In kind it is subcellular. The conditions noted are these: lysate, at 5 µM.

For assay [7], the target named is Phosphatidylinositol 4-phosphate 3-kinase C2 domain-containing subunit beta (Homo sapiens) (UniProt O00750). Nature of the assay: Selectivity interaction (KinomeScan (DiscoverX)) EUB0001049a PIK3C2B. The conditions noted are these: at 1 µM.
Phosphatidylinositol 4-phosphate 3-kinase C2 domain-containing subunit beta (Homo sapiens), sequence (O00750 whole entry, the tested form may be a part): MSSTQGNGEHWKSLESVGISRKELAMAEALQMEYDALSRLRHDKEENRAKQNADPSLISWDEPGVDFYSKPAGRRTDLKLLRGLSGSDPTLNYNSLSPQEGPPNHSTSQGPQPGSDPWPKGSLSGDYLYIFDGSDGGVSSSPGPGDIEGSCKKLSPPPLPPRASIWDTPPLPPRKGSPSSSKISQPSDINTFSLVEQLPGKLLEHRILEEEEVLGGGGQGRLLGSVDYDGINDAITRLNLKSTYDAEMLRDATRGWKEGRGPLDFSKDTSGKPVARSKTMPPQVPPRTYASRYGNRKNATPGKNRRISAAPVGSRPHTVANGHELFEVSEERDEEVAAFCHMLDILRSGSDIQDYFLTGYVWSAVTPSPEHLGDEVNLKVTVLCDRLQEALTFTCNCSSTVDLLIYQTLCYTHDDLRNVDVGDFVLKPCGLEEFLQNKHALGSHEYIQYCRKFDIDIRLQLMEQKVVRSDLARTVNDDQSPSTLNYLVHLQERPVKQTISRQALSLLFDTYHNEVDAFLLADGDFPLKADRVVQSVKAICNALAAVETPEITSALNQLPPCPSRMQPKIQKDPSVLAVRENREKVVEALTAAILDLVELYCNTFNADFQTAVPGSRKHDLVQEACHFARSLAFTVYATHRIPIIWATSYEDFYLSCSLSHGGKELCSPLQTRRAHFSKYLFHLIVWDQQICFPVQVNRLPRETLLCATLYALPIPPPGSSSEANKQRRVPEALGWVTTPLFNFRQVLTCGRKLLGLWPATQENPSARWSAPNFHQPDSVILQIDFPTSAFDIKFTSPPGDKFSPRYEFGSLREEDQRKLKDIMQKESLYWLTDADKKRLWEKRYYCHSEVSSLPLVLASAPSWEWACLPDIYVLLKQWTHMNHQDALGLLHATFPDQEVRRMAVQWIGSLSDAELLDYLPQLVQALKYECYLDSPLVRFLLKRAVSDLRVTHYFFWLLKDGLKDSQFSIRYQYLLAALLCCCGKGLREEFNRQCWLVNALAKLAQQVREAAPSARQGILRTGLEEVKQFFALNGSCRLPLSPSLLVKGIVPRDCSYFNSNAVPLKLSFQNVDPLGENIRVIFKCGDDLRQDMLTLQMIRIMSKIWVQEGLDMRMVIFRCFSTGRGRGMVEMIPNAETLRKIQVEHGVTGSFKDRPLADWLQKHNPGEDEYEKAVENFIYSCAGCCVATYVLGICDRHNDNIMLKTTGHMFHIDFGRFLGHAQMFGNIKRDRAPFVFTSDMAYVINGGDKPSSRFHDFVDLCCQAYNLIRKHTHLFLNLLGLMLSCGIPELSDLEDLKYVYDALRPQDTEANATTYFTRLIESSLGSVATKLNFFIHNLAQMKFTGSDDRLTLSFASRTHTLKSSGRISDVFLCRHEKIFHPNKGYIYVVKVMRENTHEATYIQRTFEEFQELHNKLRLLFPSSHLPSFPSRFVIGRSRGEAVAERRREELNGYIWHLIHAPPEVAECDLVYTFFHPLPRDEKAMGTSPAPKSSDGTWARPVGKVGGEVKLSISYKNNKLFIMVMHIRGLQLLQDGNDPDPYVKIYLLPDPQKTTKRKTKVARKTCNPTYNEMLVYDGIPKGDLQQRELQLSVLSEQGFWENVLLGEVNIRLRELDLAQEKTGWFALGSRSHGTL

Calcium/calmodulin-dependent protein kinase kinase 2 (Homo sapiens), sequence (Q96RR4 2-588 limits assumed): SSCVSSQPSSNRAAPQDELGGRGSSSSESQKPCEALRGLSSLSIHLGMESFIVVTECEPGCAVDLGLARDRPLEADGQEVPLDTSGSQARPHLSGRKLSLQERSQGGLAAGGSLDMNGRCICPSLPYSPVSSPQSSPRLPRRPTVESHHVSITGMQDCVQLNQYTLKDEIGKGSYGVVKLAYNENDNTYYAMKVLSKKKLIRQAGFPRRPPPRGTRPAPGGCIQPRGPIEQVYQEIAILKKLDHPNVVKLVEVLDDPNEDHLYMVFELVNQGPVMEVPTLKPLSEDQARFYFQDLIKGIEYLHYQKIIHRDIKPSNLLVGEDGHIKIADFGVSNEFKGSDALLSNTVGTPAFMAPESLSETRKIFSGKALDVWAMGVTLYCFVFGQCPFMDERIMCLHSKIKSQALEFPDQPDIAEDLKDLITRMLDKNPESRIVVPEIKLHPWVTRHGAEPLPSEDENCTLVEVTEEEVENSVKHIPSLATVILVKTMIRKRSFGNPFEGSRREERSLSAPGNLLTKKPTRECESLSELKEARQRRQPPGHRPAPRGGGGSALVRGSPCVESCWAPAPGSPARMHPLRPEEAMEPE

In the case of `CN(C)C/C=C/C(=O)Nc1ccc(C(=O)N2CCCC(Nc3ncc(Cl)c(-c4c[nH]c5ccccc45)n3)C2)cc1` (stereo unspecified), the % of control in assay [1] came out at 81%; in assay [2] it was 100%.

`Cc1cc([C@@H](C)Nc2ccccc2C(=O)O)c2nc(N3CCOCC3)cc(=O)n2c1` [AZD-6482] gave a % of control in assay [3] of 100%.

`Nc1cnc(N2CCc3cc(S(=O)(=O)Nc4c(F)cc(Cl)cc4F)cc(N4CCCC4=O)c32)nc1` [TP-020n] showed a % of control in assay [4] of 100%.

Consider `CC[C@@H]1[C@H](F)C(=O)N[C@@H]1COc1nccc2cc(C(N)=O)c(OC)cc12` [ZIMLOVISERTIB], for which the % of inhibition in assay [5] (at 0.01 µM) was 0.3%; in assay [5] (at 0.04 µM), -3.6%; in assay [5] (at 0.2 µM), -11.2%; in assay [5] (at 1 µM), 7.7%; in assay [5] (at 5 µM) it was 0.4%; in assay [6] it was 18.5%.

`COc1cc(Nc2nc(C)cc(-c3cnn4nc(OC)ccc34)n2)cc(C(F)(F)F)c1`: the % of control in assay [7] stood at 100%.
